Results reported in patent US12180509B2, “Methods for reprograming non-pluripotent cells into pluripotent stem cells” (Beihao Stem Cell and Regenerative Medicine Research …, priority 2015, dated 2024).

Assays:
[1] = tested on: pluripotency-related genes and XEN marker genes; test: Real-time PCR of pluripotency, XEN and MET genes during chemical reprogramming; assay type: cell-based, mouse; details: stage 2, XEN-like cells
Experimental: Total RNA from an entire well of cultured cells was isolated using the RNeasy Plus MiniKit (QIAGEN). For a single colony, RNA was isolated using the RNeasy Micro Kit (QIAGEN). RNA was converted to cDNA using TransScript First-Strand cDNA Synthesis SuperMix (TransGen Biotech). PCR was carried out using Power SYBRR Green PCR Master Mix (Applied Biosystems) and performed on an ABI Prism 7300 Sequence Detection System. The data were analyzed using the delta-delta Ct method.

XEN-like cells = test: Transition of XEN-like colonies to CiPSCs (stages 2 and 3); assay type: cell-based, mouse; details: screen of 88 small molecules in the presence of VC6TFA plus DZNep, stage 2 of 12 days
Experimental: MEFs, MNFs or MAFs were plated at 300,000 cells per 100 mm dish, or 50,000 cells per well on a 6-well plate. The next day (day 0), the culture was changed into stage 1 medium supplemented with small-molecule cocktail VC6TFAE (0.5 mM VPA, […] CHIR99021, 10 μM 616452, 5 μM Tranylcypromine, 50 µM FSK, 0.05 μM AM580 and 5 μM EPZ004777). […] The cells were harvested and then re-plated at 100,000 cells per well of a 6-well plate (1:15). During days 12-16, the cells were cultured in stage 1 medium supplemented with a modified small-molecule cocktail VC6TFA (0.5 mM VPA, 10 μM CHIR99021, 10 μM 616452, 5 μM Tranylcypromine, 10 μM FSK, 0.05 μM AM580). On day 16, XEN-like epithelial colonies were formed and the culture was changed into stage 2 medium supplemented with small-molecule cocktail VC6TFAZDS (0.5 mM VPA, 10 μM CHIR99021, 10 μM 616452, 5 μM Tranylcypromine, 10 μM FSK, 0.05 μM AM580, 0.05 μM DZNep, 0.5 μM 5-aza-dC and 5 μM SGC0946). On day 28, the culture was transferred into stage 3 medium. […] During CiPSC induction, the medium and small molecules were changed every 4 days.
Studies were next conducted to identify small molecules that facilitate the transition of XEN-like colonies to CiPSCs during stages 2 and 3. Small-molecule screenings were performed in the presence of small molecule cocktail VC6TFA plus DZNep (Z) for 12 days with successful enhanced generation of CiPSC colonies. […]

Nc1ncn([C@H]2C[C@H](O)[C@@H](CO)O2)c(=O)n1 [5-aza-dC]
expression of pluripotency genes (Oct4, Dppa family genes) [1]: promote the expression of pluripotency genes
CiPSC colony formation in stage 3 (XEN-like cells): CiPSC colonies formed in stage 3 only when the cell culture medium was supplemented with 5-aza-dC
